Test system: not listed separately
Experiment: Cytotoxicity against human RPMI8226 cells assessed as reduction in cell viability after 72 hrs by MTT assay
Assay type: functional, cell-based
Conditions: RPMI-8226, 72 h

Compound	IC50
Cc1c(C)c2c(c(C)c1OC(=O)CCC(=O)O)CCC(C)(C(=O)NCC1CC(C)(C)N([O])C1(C)C)O2 (stereo not given)	> 300 µM
Cc1c(C)c2c(c(C)c1O)CCC(C)(C(=O)O)O2 (stereo not given) [TROLOX]	> 300 µM

Test system: not listed separately
Experiment: Cytotoxicity against hamster AG17-1 cells assessed as reduction in cell viability after 72 hrs by MTT assay
Assay type: toxicity, cell-based, Cricetulus griseus
Conditions: Chinese hamster

Compound	IC50 at 72 h
Cc1c(C)c2c(c(C)c1OC(=O)CCC(=O)O)CCC(C)(C(=O)NCC1CC(C)(C)N([O])C1(C)C)O2 (stereo not given)	> 300 µM
Cc1c(C)c2c(c(C)c1O)CCC(C)(C(=O)O)O2 (stereo not given) [TROLOX]	> 300 µM

Test system: not listed separately
Experiment: Ratio of IC50 for human U937 cells to concentration causing antioxidant activity in Salmonella typhimurium TA102 harboring […] mutant
Assay type: functional, U-937
Conditions: not given

Compound	Ratio
Cc1c(C)c2c(c(C)c1OC(=O)CCC(=O)O)CCC(C)(C(=O)NCC1CC(C)(C)N([O])C1(C)C)O2 (stereo not given)	100 - 1000

Test system: not listed separately
Experiment: Cytotoxicity against human CEM13 cells assessed as reduction in cell viability after 72 hrs by MTT assay
Assay type: functional, cell-based
Conditions: CEM13, 72 h

Compound	IC50
Cc1c(C)c2c(c(C)c1OC(=O)CCC(=O)O)CCC(C)(C(=O)NCC1CC(C)(C)N([O])C1(C)C)O2 (stereo not given)	> 300 µM
Cc1c(C)c2c(c(C)c1O)CCC(C)(C(=O)O)O2 (stereo not given) [TROLOX]	> 300 µM

Test system: Salmonella enterica subsp. enterica serovar Typhimurium
Experiment: Antioxidant activity in Salmonella typhimurium TA102 harboring […] mutant assessed as inhibition of t-BuO2H-dependant mutant formation at 30 uM preincubated with compound followed by t-BuO2H addition after 48 hrs by Ames test
Assay type: functional
Conditions: not given

Compound	inhibition
Cc1c(C)c2c(c(C)c1OC(=O)CCC(=O)O)CCC(C)(C(=O)NCC1CC(C)(C)N([O])C1(C)C)O2 (stereo not given)	18%
Cc1c(C)c2c(c(C)c1O)CCC(C)(C(=O)O)O2 (stereo not given) [TROLOX]	4.7%

Test system: not listed separately
Experiment: Cytotoxicity against human CEM13 cells assessed as reduction in cell viability at 300 uM after 72 hrs by MTT assay
Assay type: functional
Conditions: CEM13, 72 h

Compound	inhibition at 300 µM
Cc1c(C)c2c(c(C)c1OC(=O)CCC(=O)O)CCC(C)(C(=O)NCC1CC(C)(C)N([O])C1(C)C)O2 (stereo not given)	31%
Cc1c(C)c2c(c(C)c1O)CCC(C)(C(=O)O)O2 (stereo not given) [TROLOX]	37%

Test system: Salmonella enterica subsp. enterica serovar Typhimurium
Experiment: Antioxidant activity in Salmonella typhimurium TA102 harboring […] mutant assessed as inhibition of t-BuO2H-dependant mutant formation at 0.3 uM preincubated with compound followed by t-BuO2H addition after 48 hrs by Ames test
Assay type: functional
Conditions: not given

Compound	inhibition
Cc1c(C)c2c(c(C)c1OC(=O)CCC(=O)O)CCC(C)(C(=O)NCC1CC(C)(C)N([O])C1(C)C)O2 (stereo not given)	31%
Cc1c(C)c2c(c(C)c1O)CCC(C)(C(=O)O)O2 (stereo not given) [TROLOX]	8.8%

Test system: not listed separately
Experiment: Ratio of IC50 for human HEPG2 cells to concentration causing antioxidant activity in Salmonella typhimurium TA102 harboring […] mutant
Assay type: functional
Conditions: not given

Compound	Ratio
Cc1c(C)c2c(c(C)c1OC(=O)CCC(=O)O)CCC(C)(C(=O)NCC1CC(C)(C)N([O])C1(C)C)O2 (stereo not given)	100 - 1000

Test system: not listed separately
Experiment: Cytotoxicity against human MCF7 cells assessed as reduction in cell viability at 300 uM after 72 hrs by MTT assay
Assay type: functional
Conditions: MCF7, 72 h

Compound	inhibition at 300 µM
Cc1c(C)c2c(c(C)c1OC(=O)CCC(=O)O)CCC(C)(C(=O)NCC1CC(C)(C)N([O])C1(C)C)O2 (stereo not given)	24%
Cc1c(C)c2c(c(C)c1O)CCC(C)(C(=O)O)O2 (stereo not given) [TROLOX]	5%

Test system: not listed separately
Experiment: Cytotoxicity against hamster AG17-1 cells assessed as reduction in cell viability at 300 uM after 72 hrs by MTT assay
Assay type: toxicity, cell-based, Cricetulus griseus
Conditions: Chinese hamster, read-out: INH

Compound	cytotoxicity at 72 h, 300 µM
Cc1c(C)c2c(c(C)c1OC(=O)CCC(=O)O)CCC(C)(C(=O)NCC1CC(C)(C)N([O])C1(C)C)O2 (stereo not given)	30%
Cc1c(C)c2c(c(C)c1O)CCC(C)(C(=O)O)O2 (stereo not given) [TROLOX]	0%

Test system: not listed separately
Experiment: Ratio of IC50 for human RPMI8226 cells to concentration causing antioxidant activity in Salmonella typhimurium TA102 harboring […] mutant
Assay type: functional, RPMI-8226
Conditions: not given

Compound	Ratio
Cc1c(C)c2c(c(C)c1OC(=O)CCC(=O)O)CCC(C)(C(=O)NCC1CC(C)(C)N([O])C1(C)C)O2 (stereo not given)	100 - 1000

Test system: not listed separately
Experiment: Cytotoxicity against human HepG2 cells assessed as reduction in cell viability after 72 hrs by MTT assay
Assay type: functional, cell-based
Conditions: HepG2, 72 h

Compound	IC50
Cc1c(C)c2c(c(C)c1OC(=O)CCC(=O)O)CCC(C)(C(=O)NCC1CC(C)(C)N([O])C1(C)C)O2 (stereo not given)	> 300 µM
Cc1c(C)c2c(c(C)c1O)CCC(C)(C(=O)O)O2 (stereo not given) [TROLOX]	> 300 µM

Test system: not listed separately
Experiment: Ratio of IC50 for human MCF7 cells to concentration causing antioxidant activity in Salmonella typhimurium TA102 harboring […] mutant
Assay type: functional
Conditions: not given

Compound	Ratio
Cc1c(C)c2c(c(C)c1OC(=O)CCC(=O)O)CCC(C)(C(=O)NCC1CC(C)(C)N([O])C1(C)C)O2 (stereo not given)	100 - 1000

Test system: Salmonella enterica subsp. enterica serovar Typhimurium
Experiment: Antioxidant activity in Salmonella typhimurium TA102 harboring […] mutant assessed as inhibition of t-BuO2H-dependant mutant formation at 3 uM preincubated with compound followed by t-BuO2H addition after 48 hrs by Ames test
Assay type: functional
Conditions: not given

Compound	inhibition
Cc1c(C)c2c(c(C)c1OC(=O)CCC(=O)O)CCC(C)(C(=O)NCC1CC(C)(C)N([O])C1(C)C)O2 (stereo not given)	22%
Cc1c(C)c2c(c(C)c1O)CCC(C)(C(=O)O)O2 (stereo not given) [TROLOX]	14.5%

Test system: not listed separately
Experiment: Genotoxicity in Escherichia coli PQ37 expressing lacZ gene assessed as ratio of inducible beta-galactosidase activity to alkaline phosphatase activity at 30 mM after 2 hrs by SOS-chromotest relative to control
Assay type: toxicity
Conditions: Escherichia coli PQ37 cells expressing lacZ gene, read-out: FC

Compound	fold induction at 2 h, 30000 µM
Cc1c(C)c2c(c(C)c1OC(=O)CCC(=O)O)CCC(C)(C(=O)NCC1CC(C)(C)N([O])C1(C)C)O2 (stereo not given)	1.3

Test system: not listed separately
Experiment: Ratio of IC50 for human CEM13 cells to concentration causing antioxidant activity in Salmonella typhimurium TA102 harboring […] mutant
Assay type: functional
Conditions: not given

Compound	Ratio
Cc1c(C)c2c(c(C)c1OC(=O)CCC(=O)O)CCC(C)(C(=O)NCC1CC(C)(C)N([O])C1(C)C)O2 (stereo not given)	100 - 1000

Test system: not listed separately
Experiment: Cytotoxicity against human MT4 cells assessed as reduction in cell viability at 300 uM after 72 hrs by MTT assay
Assay type: functional
Conditions: MT4, 72 h

Compound	inhibition at 300 µM
Cc1c(C)c2c(c(C)c1OC(=O)CCC(=O)O)CCC(C)(C(=O)NCC1CC(C)(C)N([O])C1(C)C)O2 (stereo not given)	46%

Test system: not listed separately
Experiment: Cytotoxicity against human RPMI8226 cells assessed as reduction in cell viability at 300 uM after 72 hrs by MTT assay
Assay type: functional
Conditions: RPMI-8226, 72 h

Compound	inhibition at 300 µM
Cc1c(C)c2c(c(C)c1OC(=O)CCC(=O)O)CCC(C)(C(=O)NCC1CC(C)(C)N([O])C1(C)C)O2 (stereo not given)	22%
Cc1c(C)c2c(c(C)c1O)CCC(C)(C(=O)O)O2 (stereo not given) [TROLOX]	0%

Test system: not listed separately
Experiment: Genotoxicity in Escherichia coli PQ37 expressing lacZ gene assessed as ratio of inducible beta-galactosidase activity to alkaline phosphatase activity at 3 mM after 2 hrs by SOS-chromotest relative to control
Assay type: toxicity
Conditions: Escherichia coli PQ37 cells expressing lacZ gene, read-out: FC

Compound	fold induction at 2 h, 3000 µM
Cc1c(C)c2c(c(C)c1O)CCC(C)(C(=O)O)O2 (stereo not given) [TROLOX]	1

Test system: not listed separately
Experiment: Cytotoxicity against mouse LMTK cells assessed as reduction in cell viability after 72 hrs by MTT assay
Assay type: toxicity
Conditions: not given

Compound	IC50 at 72 h
Cc1c(C)c2c(c(C)c1OC(=O)CCC(=O)O)CCC(C)(C(=O)NCC1CC(C)(C)N([O])C1(C)C)O2 (stereo not given)	> 300 µM
Cc1c(C)c2c(c(C)c1O)CCC(C)(C(=O)O)O2 (stereo not given) [TROLOX]	> 300 µM

Test system: not listed separately
Experiment: Cytotoxicity against human MCF7 cells assessed as reduction in cell viability after 72 hrs by MTT assay
Assay type: functional, cell-based
Conditions: MCF7, 72 h

Compound	IC50
Cc1c(C)c2c(c(C)c1OC(=O)CCC(=O)O)CCC(C)(C(=O)NCC1CC(C)(C)N([O])C1(C)C)O2 (stereo not given)	> 300 µM
Cc1c(C)c2c(c(C)c1O)CCC(C)(C(=O)O)O2 (stereo not given) [TROLOX]	> 300 µM

Test system: not listed separately
Experiment: Cytotoxicity against human HepG2 cells assessed as reduction in cell viability at 300 uM after 72 hrs by MTT assay
Assay type: functional
Conditions: HepG2, 72 h

Compound	inhibition at 300 µM
Cc1c(C)c2c(c(C)c1OC(=O)CCC(=O)O)CCC(C)(C(=O)NCC1CC(C)(C)N([O])C1(C)C)O2 (stereo not given)	18%
Cc1c(C)c2c(c(C)c1O)CCC(C)(C(=O)O)O2 (stereo not given) [TROLOX]	14%

Test system: not listed separately
Experiment: Cytotoxicity against mouse LMTK cells assessed as reduction in cell viability at 300 uM after 72 hrs by MTT assay
Assay type: toxicity
Conditions: read-out: INH

Compound	cytotoxicity at 72 h, 300 µM
Cc1c(C)c2c(c(C)c1OC(=O)CCC(=O)O)CCC(C)(C(=O)NCC1CC(C)(C)N([O])C1(C)C)O2 (stereo not given)	0%
Cc1c(C)c2c(c(C)c1O)CCC(C)(C(=O)O)O2 (stereo not given) [TROLOX]	0%

Test system: Salmonella typhimurium
Experiment: Genotoxicity in Salmonella typhimurium TA102 harboring […] mutant assessed as frequency of reversion from histidine auxotrophy to prototrophy at 30 mM after 48 hrs by Ames test (reference value: 209 +/- 10 No _unit)
Assay type: toxicity, organism-based
Conditions: salmonella enterica subsp. enterica serovar typhimurium, 30000 µM

Compound	Activity
Cc1c(C)c2c(c(C)c1OC(=O)CCC(=O)O)CCC(C)(C(=O)NCC1CC(C)(C)N([O])C1(C)C)O2 (stereo not given)	205
Cc1c(C)c2c(c(C)c1O)CCC(C)(C(=O)O)O2 (stereo not given) [TROLOX]	230

Test system: not listed separately
Experiment: Ratio of IC50 for human MT4 cells to concentration causing antioxidant activity in Salmonella typhimurium TA102 harboring […] mutant
Assay type: functional
Conditions: not given

Compound	Ratio
Cc1c(C)c2c(c(C)c1OC(=O)CCC(=O)O)CCC(C)(C(=O)NCC1CC(C)(C)N([O])C1(C)C)O2 (stereo not given)	100 - 1000

Test system: not listed separately
Experiment: Cytotoxicity against human MT4 cells assessed as reduction in cell viability after 72 hrs by MTT assay
Assay type: functional, cell-based
Conditions: MT4, 72 h

Compound	IC50
Cc1c(C)c2c(c(C)c1OC(=O)CCC(=O)O)CCC(C)(C(=O)NCC1CC(C)(C)N([O])C1(C)C)O2 (stereo not given)	> 300 µM
Cc1c(C)c2c(c(C)c1O)CCC(C)(C(=O)O)O2 (stereo not given) [TROLOX]	200 µM

Test system: not listed separately
Experiment: Cytotoxicity against human U937 cells assessed as reduction in cell viability after 72 hrs by MTT assay
Assay type: functional, cell-based
Conditions: U-937, 72 h

Compound	IC50
Cc1c(C)c2c(c(C)c1OC(=O)CCC(=O)O)CCC(C)(C(=O)NCC1CC(C)(C)N([O])C1(C)C)O2 (stereo not given)	24 µM
Cc1c(C)c2c(c(C)c1O)CCC(C)(C(=O)O)O2 (stereo not given) [TROLOX]	300 µM

— ChEMBL document CHEMBL3865792, “Antioxidant and antitumor activity of trolox, trolox succinate, and α-tocopheryl succinate conjugates with nitroxides” (Eur J Med Chem, 2016)
